Data from patent US12630547B2, “RAS protein degraders, pharmaceutical compositions thereof, and their therapeutic applications” (BioTheryX, Inc., priority 2019, dated 2026).

tested on: MOLM-13 cells; assay: Cell viability assay (CELLTITER-GLO), MOLM-13 cells; format: cell-based; settings: Homo sapiens, MOLM-13, 72 h; Table 2; compound at 10 μM, 3 days; read-out: Effect on MOLM-13 cell viability (% DMSO)
Experimental: MOLM-13 cells, MV-4-11 cells, H23, and H358 cells were independently cultured in RPMI 1640 media supplemented with 10% fetal bovine serum, streptomycin and penicillin. The cells were plated in white walled 96-well plates at 4,000 cells/well. The cells were incubated in DMSO (control) or a compound for 3 days at 37° C. under 5% CO2. A CELLTITER-GLO® reagent (100 μL) was then added to each well. After a 10 min incubation with shaking, luminescence was measured using an ENVISION® multimode plate reader.
In Tables 1 and 2, each compound was tested at 10 μM; and in Table 3, each compound was tested at 1 μM. In Tables 1 to 3, the cell viability values as % DMSO are reported as “A,” “B,” “C,” or “D;” where “A” represents a % viability value of less than 10%; “B” represents a % viability value of no less than 10% and less than 25%; “C” represents a % viability value of no less than 25% and less than 50%; and “D” represents a % viability value of no less than 50%. Compound A is […]

Compound	viability at 10 µM
C=CC(=O)N1CC(c2nc3ccc(-c4cc(O)cc5ccccc45)cc3c(=O)n2CCNCc2ccc(OCc3scc4c3CN([C@H]3CCC(=O)NC3=O)C4=O)cc2)C1 [Compound 15, (S)-3-(1-((4-(((2-(2-(1-Acryloylazetidin-3-yl)-6-(3-hydroxynaphthalen-1-yl)-4-oxoquinazolin-3(4H)-yl)ethyl)amino)methyl)phenoxy)methyl)-4-oxo-4H-thieno[3,4-c]pyrrol-5(6H)-yl)piperidine-2,6-dione]	≥ 50%
C=CC(=O)N1CC(N2Cc3ccc(-c4cc(O)cc5ccccc45)cc3N(CCOCCOCCC(=O)NCCOc3cccc4c3C(=O)N(C3CCC(=O)NC3=O)C4=O)C2=O)C1 (stereo not shown) [Compound 11, 3-(2-(2-(3-(1-Acryloylazetidin-3-yl)-7-(3-hydroxynaphthalen-1-yl)-2-oxo-3,4-dihydroquinazolin-1(2H)-yl)ethoxy)ethoxy)-N-(2-((2-(2,6-dioxopiperidin-3-yl)-1,3-dioxoisoindolin-4-yl)oxy)ethyl)propanamide]	≥ 50%
C=CC(=O)N1CC(c2nc3ccc(-c4cc(O)cc5ccccc45)cc3c(=O)n2CCOCCNCc2ccc(OCc3scc4c3CN(C3CCC(=O)NC3=O)C4=O)cc2)C1 (stereo not shown) [Compound 21, 3-(1-((4-(((2-(2-(2-(1-Acryloylazetidin-3-yl)-6-(3-hydroxynaphthalen-1-yl)-4-oxoquinazolin-3(4H)-yl)ethoxy)ethyl)amino)methyl)phenoxy)methyl)-4-oxo-4H-thieno[3,4-c]pyrrol-5(6H)-yl)piperidine-2,6-dione]	≥ 50%
C=CC(=O)N1CC(c2nc3ccc(-c4cc(O)cc5ccccc45)cc3c(=O)n2CCNCc2ccc(OCc3scc4c3CN(C3CCC(=O)NC3=O)C4=O)cc2)C1 (stereo not shown) [Compound 18, 3-(1-((4-(((2-(2-(1-Acryloylazetidin-3-yl)-6-(3-hydroxynaphthalen-1-yl)-4-oxoquinazolin-3(4H)-yl)ethyl)amino)methyl)phenoxy)methyl)-4-oxo-4H-thieno[3,4-c]pyrrol-5(6H)-yl)piperidine-2,6-dione]	≥ 50%
CCC(=O)N1CCN(c2ncnc3c(F)c(-c4c(F)cccc4OCCCCCCCNCc4ccc(OCc5scc6c5CN([C@H]5CCC(=O)NC5=O)C6=O)cc4)c(Cl)cc23)CC1 [Compound 25, (3S)-3-(1-((4-(((7-(2-(6-Chloro-8-fluoro-4-(4-propionylpiperazin-1-yl)quinazolin-7-yl)-3-fluorophenoxy)heptyl)amino)methyl)phenoxy)methyl)-4-oxo-4H-thieno[3,4-c]pyrrol-5(6H)-yl)piperidine-2,6-dione]	< 10%
CCC(=O)N1CC(c2nc3ccc(-c4cc(O)cc5ccccc45)cc3c(=O)n2CCOCCNCc2ccc(OCc3scc4c3CN(C3CCC(=O)NC3=O)C4=O)cc2)C1 (stereo not shown) [Compound 26, 3-(1-((4-(((2-(2-(6-(3-Hydroxynaphthalen-1-yl)-4-oxo-2-(1-propionylazetidin-3-yl)quinazolin-3(4H)-yl)ethoxy)ethyl)amino)methyl)phenoxy)methyl)-4-oxo-4H-thieno[3,4-c]pyrrol-5(6H)-yl)piperidine-2,6-dione]	≥ 50%
C=CC(=O)N1CC(N2Cc3ccc(-c4cc(O)cc5ccccc45)cc3N(CCCCNCc3ccc(OCc4scc5c4CN(C4CCC(=O)NC4=O)C5=O)cc3)C2=O)C1 (stereo not shown) [Compound 19, 3-(1-((4-(((4-(3-(1-Acryloylazetidin-3-yl)-7-(3-hydroxynaphthalen-1-yl)-2-oxo-3,4-dihydroquinazolin-1(2H)-yl)butyl)amino)methyl)phenoxy)methyl)-4-oxo-4H-thieno[3,4-c]pyrrol-5(6H)-yl)piperidine-2,6-dione]	≥ 50%
NC(=O)N1CCN(c2ncnc3c(F)c(-c4c(F)cccc4OCCOCCOCCOCCNc4cccc5c4C(=O)N(C4CCC(=O)NC4=O)C5=O)c(Cl)cc23)CC1 (stereo not shown) [Compound 32, 4-(6-Chloro-7-(2-(2-(2-(2-(2-((2-(2,6-dioxopiperidin-3-yl)-1,3-dioxoisoindolin-4-yl)amino)ethoxy)ethoxy)ethoxy)ethoxy)-6-fluorophenyl)-8-fluoroquinazolin-4-yl)piperazine-1-carboxamide]	≥ 50%
CCC(=O)N1CCN(c2ncnc3c(F)c(-c4c(F)cccc4OCCCCCCCCNc4cccc5c4C(=O)N(C4CCC(=O)NC4=O)C5=O)c(Cl)cc23)CC1 (stereo not shown) [Compound 33, 4-((8-(2-(6-Chloro-8-fluoro-4-(4-propionylpiperazin-1-yl)quinazolin-7-yl)-3-fluorophenoxy)octyl)amino)-2-(2,6-dioxopiperidin-3-yl)isoindoline-1,3-dione]	25 to 50%
CCC(=O)N1CC(N2Cc3ccc(-c4cc(O)cc5ccccc45)cc3N(CCOCCOCCOCCNc3cccc4c3C(=O)N(C3CCC(=O)NC3=O)C4=O)C2=O)C1 (stereo not shown) [Compound 12, 2-(2,6-Dioxopiperidin-3-yl)-4-((2-(2-(2-(2-(7-(3-hydroxynaphthalen-1-yl)-2-oxo-3-(1-propionylazetidin-3-yl)-3,4-dihydroquinazolin-1(2H)-yl)ethoxy)ethoxy)ethoxy)ethyl)amino)-isoindoline-1,3-dione]	≥ 50%
C=CC(=O)N1CCN(c2ncnc3c(F)c(-c4c(F)cccc4OCCCCCCCCNc4cccc5c4C(=O)N(C4CCC(=O)NC4=O)C5=O)c(Cl)cc23)CC1 (stereo not shown) [Compound 34, 4-((8-(2-(4-(4-Acryloylpiperazin-1-yl)-6-chloro-8-fluoroquinazolin-7-yl)-3-fluorophenoxy)octyl)amino)-2-(2,6-dioxopiperidin-3-yl)isoindoline-1,3-dione]	10 to 25%
C=CC(=O)N1CC(c2nc3ccc(-c4cc(O)cc5ccccc45)cc3c(=O)n2CC(=O)NCCOCCOCCOCCNc2cccc3c2C(=O)N(C2CCC(=O)NC2=O)C3=O)C1 (stereo not shown) [Compound 17, 2-(2-(1-Acryloylazetidin-3-yl)-6-(3-hydroxynaphthalen-1-yl)-4-oxoquinazolin-3(4H)-yl)-N-(2-(2-(2-(2-((2-(2,6-dioxopiperidin-3-yl)-1,3-dioxoisoindolin-4-yl)amino)ethoxy)ethoxy)ethoxy)-ethyl)acetamide]	≥ 50%
CCC(=O)N1CCN(c2ncnc3c(F)c(-c4c(F)cccc4OCCOCCOCCC(=O)NCCNc4cccc5c4CN(C4CCC(=O)NC4=O)C5=O)c(Cl)cc23)CC1 (stereo not shown) [Compound 30, 3-(2-(2-(2-(6-chloro-8-fluoro-4-(4-propionylpiperazin-1-yl)quinazolin-7-yl)-3-fluorophenoxy)ethoxy)ethoxy)-N-(2-((2-(2,6-dioxopiperidin-3-yl)-1-oxoisoindolin-4-yl)amino)ethyl)propanamide]	≥ 50%

same assay, conditions: Homo sapiens, MOLM-13, 72 h; Table 3; compound at 1 μM, 3 days; read-out: Effect on MOLM-13 cell viability (% DMSO)

Compound	viability at 1 µM
CCC(=O)N1CC(N2Cc3ccc(-c4cc(O)cc5ccccc45)cc3N(CCOCCOCCC(=O)NCCOc3cccc4c3C(=O)N(C3CCC(=O)NC3=O)C4=O)C2=O)C1 (stereo not shown) [Compound 7, N-(2-((2-(2,6-Dioxopiperidin-3-yl)-1,3-dioxoisoindolin-4-yl)oxy)ethyl)-3-(2-(2-(7-(3-hydroxynaphthalen-1-yl)-2-oxo-3-(1-propionylazetidin-3-yl)-3,4-dihydroquinazolin-1(2H)-yl)ethoxy)ethoxy)propanamide]	≥ 50%
C=CC(=O)N1CCN(c2ncnc3c(F)c(-c4c(F)cccc4OCCOCCOCCC(=O)NCCOc4cccc5c4C(=O)N(C4CCC(=O)NC4=O)C5=O)c(Cl)cc23)CC1 (stereo not shown) [Compound 3, 3-(2-(2-(2-(4-(4-Acryloylpiperazin-1-yl)-6-chloro-8-fluoroquinazolin-7-yl)-3-fluorophenoxy)ethoxy)ethoxy)-N-(2-((2-(2,6-dioxopiperidin-3-yl)-1,3-dioxoisoindolin-4-yl)oxy)ethyl)propanamide]	≥ 50%
CCC(=O)N1CCN(c2ncnc3c(F)c(-c4c(F)cccc4OCCOCCOCCOCCNc4cccc5c4C(=O)N(C4CCC(=O)NC4=O)C5=O)c(Cl)cc23)CC1 (stereo not shown) [Compound 9, 4-((2-(2-(2-(2-(2-(6-Chloro-8-fluoro-4-(4-propionylpiperazin-1-yl)quinazolin-7-yl)-3-fluorophenoxy)ethoxy)ethoxy)ethoxy)ethyl)amino)-2-(2,6-dioxopiperidin-3-yl)isoindoline-1,3-dione]	≥ 50%
CCC(=O)N1CC(N2Cc3ccc(-c4cc(O)cc5ccccc45)cc3N(CCOCCNCc3ccc(OCc4scc5c4CN(C4CCC(=O)NC4=O)C5=O)cc3)C2=O)C1 (stereo not shown) [Compound 5, 3-(1-((4-(((2-(2-(7-(3-Hydroxynaphthalen-1-yl)-2-oxo-3-(1-propionylazetidin-3-yl)-3,4-dihydroquinazolin-1(2H)-yl)ethoxy)ethyl)amino)methyl)phenoxy)methyl)-4-oxo-4H-thieno[3,4-c]pyrrol-5(6H)-yl)piperidine-2,6-dione]	≥ 50%
CCC(=O)N1CCN(c2ncnc3c(F)c(-c4c(F)cccc4OCCOCCOCCC(=O)NCCNc4cccc5c4C(=O)N(C4CCC(=O)NC4=O)C5=O)c(Cl)cc23)CC1 (stereo not shown) [Compound 6, 3-(2-(2-(2-(6-Chloro-8-fluoro-4-(4-propionylpiperazin-1-yl)quinazolin-7-yl)-3-fluorophenoxy)ethoxy)ethoxy)-N-(2-((2-(2,6-dioxopiperidin-3-yl)-1,3-dioxoisoindolin-4-yl)amino)ethyl)propanamide]	≥ 50%
C=CC(=O)N1CC(N2Cc3ccc(-c4cc(O)cc5ccccc45)cc3N(CCOCCC(=O)NCCOc3cccc4c3C(=O)N(C3CCC(=O)NC3=O)C4=O)C2=O)C1 (stereo not shown) [Compound 10, 3-(2-(3-(1-Acryloylazetidin-3-yl)-7-(3-hydroxynaphthalen-1-yl)-2-oxo-3,4-dihydroquinazolin-1(2H)-yl)ethoxy)-N-(2-((2-(2,6-dioxopiperidin-3-yl)-1,3-dioxoisoindolin-4-yl)oxy)ethyl)propanamide]	≥ 50%
